Article PMC7357011, “Adenosine-5′-Phosphosulfate- and Sulfite Reductases Activities of Sulfate-Reducing Bacteria from Various Environments” (Biomolecules, 2020)

Tests used:
[1] = test system: T1, APS reductase (Desulfomicrobium sp. TC4); assay: AMP-dependent ferricyanide reduction at […] nm, Lineweaver-Burk; type: cell-based; conditions: reverse direction, EDTA, Tris-HCl pH 7.5, 27 °C, varied substrate sulfite (methods)
T1 construct: gene aprA; native enzyme in crude cell-free extract, not purified; with Adenylylsulfate reductase subunit beta

[2] = test system: T2, sulfite reductase (Desulfomicrobium sp. TC4); assay: NADH oxidation at […] nm, Lineweaver-Burk; type: cell-based; conditions: 0.2 mmol/L NADH, EDTA; Tris-HCl pH 7.5 (started with HCl); 27 °C
T2 construct: gene dsrA; native enzyme in crude cell-free extract, not purified; NADH-oxidation read-out

[3] = test system: T3, APS reductase (Desulfotomaculum sp. TC3); assay: AMP-dependent ferricyanide reduction at […] nm, Lineweaver-Burk; type: cell-based; conditions: reverse direction, EDTA, Tris-HCl pH 7.5, 27 °C, varied substrate sulfite (methods)
T3 construct: gene aprA; native enzyme in crude cell-free extract, not purified; with Adenylylsulfate reductase subunit beta

[4] = test system: T4, sulfite reductase (Desulfovibrio sp. TC2); assay: NADH oxidation at […] nm, Lineweaver-Burk; type: cell-based; conditions: 0.2 mmol/L NADH, EDTA; Tris-HCl pH 7.5 (started with HCl); 27 °C
T4 construct: gene dsrA; native enzyme in crude cell-free extract, not purified; NADH-oxidation read-out

[5] = test system: T5, sulfite reductase (Desulfotomaculum sp. TC3); assay: NADH oxidation at […] nm, Lineweaver-Burk; type: biochemical; conditions: 0.2 mmol/L NADH, EDTA; Tris-HCl pH 7.5 (started with HCl); 27 °C
T5 construct: gene dsrA; native enzyme in crude cell-free extract, not purified; NADH-oxidation read-out

[6] = test system: T6, sulfite reductase (Desulfovibrio sp. 10); assay: NADH oxidation at […] nm, Lineweaver-Burk; type: biochemical; conditions: 0.2 mmol/L NADH, EDTA; Tris-HCl pH 7.5 (started with HCl); 27 °C
T6 construct: gene dsrA; native enzyme in crude cell-free extract, not purified; NADH-oxidation read-out

[7] = test system: T7, sulfite reductase (D. desulfuricans DSM642); assay: NADH oxidation at […] nm, Lineweaver-Burk; type: cell-based, Desulfovibrio desulfuricans; conditions: 0.2 mmol/L NADH, EDTA; Tris-HCl pH 7.5 (started with HCl); 27 °C
T7 construct: gene dsrA; native enzyme in crude cell-free extract, not purified; NADH-oxidation read-out

[8] = target: T8, sulfite reductase (D. orale Rod-9) (Desulfomicrobium orale, UniProt A0A109W607+A0A109W618); assay: NADH oxidation at […] nm, Lineweaver-Burk; type: cell-based; conditions: 0.2 mmol/L NADH, EDTA; Tris-HCl pH 8.0 (started with HCl); 35 °C
T8 construct: gene AXF15_07380; native enzyme in crude cell-free extract, not purified; NADH-oxidation read-out

[9] = test system: T9, sulfite reductase (D. vulgaris DSM644); assay: NADH oxidation at […] nm, Lineweaver-Burk; type: biochemical, Nitratidesulfovibrio vulgaris; conditions: 0.2 mmol/L NADH, EDTA; Tris-HCl pH 7.5 (started with HCl); 27 °C
T9 construct: gene dsrA; native enzyme in crude cell-free extract, not purified; NADH-oxidation read-out

[10] = test system: T10, sulfite reductase (D. piger Vib-7); assay: NADH oxidation at […] nm, Lineweaver-Burk; type: cell-based, Desulfovibrio piger; conditions: 0.2 mmol/L NADH, EDTA; Tris-HCl pH 8.0 (started with HCl); 35 °C
T10 construct: gene dsrA; native enzyme in crude cell-free extract, not purified; NADH-oxidation read-out

[11] = test system: T11, APS reductase (Desulfovibrio sp. TC2); assay: AMP-dependent ferricyanide reduction at […] nm, Lineweaver-Burk; type: cell-based; conditions: reverse direction, EDTA, Tris-HCl pH 7.5, 27 °C, varied substrate sulfite (methods)
T11 construct: gene aprA; native enzyme in crude cell-free extract, not purified; with Adenylylsulfate reductase subunit beta

[12] = target: T12, APS reductase (D. desulfuricans DSM642) (Desulfovibrio desulfuricans, UniProt Q9L767); assay: as above; type: cell-based; conditions: reverse direction, EDTA, Tris-HCl pH 7.5, 27 °C, varied substrate sulfite (methods)
T12 construct: gene aprB; native enzyme in crude cell-free extract, not purified; with Adenylylsulfate reductase subunit beta
T12 sequence (Q9L767 1-662): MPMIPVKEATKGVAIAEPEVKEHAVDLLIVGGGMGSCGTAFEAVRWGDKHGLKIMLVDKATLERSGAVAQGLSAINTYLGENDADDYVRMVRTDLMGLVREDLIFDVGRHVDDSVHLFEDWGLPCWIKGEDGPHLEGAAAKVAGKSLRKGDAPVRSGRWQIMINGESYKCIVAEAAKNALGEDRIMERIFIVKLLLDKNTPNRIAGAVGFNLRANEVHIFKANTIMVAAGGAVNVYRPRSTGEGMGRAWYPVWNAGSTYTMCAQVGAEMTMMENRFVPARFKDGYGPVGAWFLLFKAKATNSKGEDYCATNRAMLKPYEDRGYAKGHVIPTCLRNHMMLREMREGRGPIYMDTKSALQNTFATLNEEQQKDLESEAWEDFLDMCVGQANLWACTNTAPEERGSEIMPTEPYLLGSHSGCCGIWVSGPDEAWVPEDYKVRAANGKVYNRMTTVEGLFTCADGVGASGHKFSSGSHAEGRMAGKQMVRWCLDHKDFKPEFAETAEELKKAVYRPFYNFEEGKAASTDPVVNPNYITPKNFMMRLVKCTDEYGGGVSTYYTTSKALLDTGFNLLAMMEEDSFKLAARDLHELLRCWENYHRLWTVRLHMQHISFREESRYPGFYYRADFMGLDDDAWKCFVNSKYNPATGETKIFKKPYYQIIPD
T12 sequence (Q9L768 1-162 partner): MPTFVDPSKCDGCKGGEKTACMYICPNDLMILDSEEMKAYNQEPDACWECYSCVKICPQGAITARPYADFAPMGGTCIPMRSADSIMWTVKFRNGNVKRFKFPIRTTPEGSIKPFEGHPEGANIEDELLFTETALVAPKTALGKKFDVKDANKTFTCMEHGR

T8 sequence (A0A109W618 1-437): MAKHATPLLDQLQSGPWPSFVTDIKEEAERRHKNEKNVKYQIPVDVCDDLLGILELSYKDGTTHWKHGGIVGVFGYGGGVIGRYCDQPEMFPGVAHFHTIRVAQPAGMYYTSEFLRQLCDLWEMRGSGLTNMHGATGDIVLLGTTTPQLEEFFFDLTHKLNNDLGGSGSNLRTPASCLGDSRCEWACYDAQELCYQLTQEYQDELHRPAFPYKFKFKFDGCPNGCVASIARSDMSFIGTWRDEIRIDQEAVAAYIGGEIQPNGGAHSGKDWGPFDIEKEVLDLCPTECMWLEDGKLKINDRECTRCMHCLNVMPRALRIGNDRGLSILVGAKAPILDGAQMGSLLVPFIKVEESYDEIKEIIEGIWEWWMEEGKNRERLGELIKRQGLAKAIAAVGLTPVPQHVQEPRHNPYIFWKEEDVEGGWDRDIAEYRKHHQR
T8 sequence (A0A109W607 1-386): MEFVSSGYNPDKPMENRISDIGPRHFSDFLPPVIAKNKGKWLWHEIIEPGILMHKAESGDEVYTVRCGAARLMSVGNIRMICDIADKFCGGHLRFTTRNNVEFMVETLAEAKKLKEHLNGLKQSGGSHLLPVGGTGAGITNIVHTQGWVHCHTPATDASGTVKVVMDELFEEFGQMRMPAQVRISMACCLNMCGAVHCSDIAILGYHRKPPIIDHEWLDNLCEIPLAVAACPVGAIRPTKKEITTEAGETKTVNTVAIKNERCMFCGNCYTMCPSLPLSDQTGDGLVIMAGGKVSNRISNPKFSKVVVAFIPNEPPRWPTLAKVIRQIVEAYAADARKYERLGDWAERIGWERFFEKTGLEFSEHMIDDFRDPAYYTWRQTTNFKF

sulfite
Km [1]: 1.1 mM
Km [2]: 19.4 mM
Km [3]: 1.49 mM
Km [4]: 26.1 mM
Km [5]: 46.2 mM
Km [6]: 46.7 mM
Km [7]: 9.97 mM
Km [8]: 3.86 mM
Km [9]: 31.7 mM
Km [10]: 3.53 mM
Km [11]: 1.59 mM
Km [12]: 2.12 mM
